Source: patent US9587002B2, “Sequence of nucleotides and peptides GSE 24.2 of dyskerin, which can induce telomerase activity, method for obtaining same, therapeutic compositions and applications thereof” (CONSEJO SUPERIOR DE INVESTIGACIONES CIENTIFICAS, priority 2005, dated 2017)

Assays:
telomerase [1] = biological target: T1, telomerase (Homo sapiens, UniProt O14746); details: different cell lines / G-quadruplex formation in telomeres; cited from earlier work
hTR = experiment: RT-PCR expression of hTR in 293T cell lines after cisplatin; assay type: cell-based, human; details: pLNCX and pLNCX 24.2 cells; 3 μg/ml, 3 and 7 days
Experimental: (§1) FIG. 7.—Expression levels of different genes related to telomerase in 293T cells: pLNCX and 24.2 following treatment with cisplatin. The cells were seeded in 60-mm plates, treated with 3 μg/ml of cDDP following pre-treatment with 0.5 μg/ml of cisplatin for 3 days and, subsequently, collected at the times specified in the figure (3 and 7 days). Following the extraction of RNA, RT-PCR was performed with oligos specific for hTERT, hTR and dyskerin in order to study the expression levels of the messenger RNAs. As a starting RNA control, oligos for the amplification of GAPDH were used.
(§2) One of the explanations for the lower sensitivity of pLNCX 24.2 cells to cisplatin could be a change in the levels of some of the components of the telomerase complex. Therefore, the expression levels of different genes involved in the telomerase complex and the effect that cisplatin had on their expression were studied. To this end, the pLNCX and pLNCX 24.2 cells were pre-treated with 0.5 μg/ml and treated with 3 μg/ml of cisplatin for 3 and 7 days. Using oligos specific for hTR, hTERT and dyskerin, the expression levels of these genes and the effect of cisplatin on said expression were studied. […] This change in the sensitivity to cisplatin could explain, at least partially, the difference in sensitivity in the telomerase activity assays.
(§3) Expression of genes by RT-PCR. […]

dyskerin = experiment: RT-PCR expression of dyskerin in 293T cell lines after cisplatin; assay type: cell-based, human; details: pLNCX and pLNCX 24.2 cells; 3 μg/ml, 3 and 7 days
Experimental: as §1, §2, §3

telomerase [2] = biological target: T1, telomerase; experiment: Telomerase activity (TRAP) of 293T cell lines treated with cisplatin; assay type: cell-based; design: endogenous in cells; host or cells: 293T cells stably transfected with empty pLNCX or pLNCX 24.2; details: 293T pLNCX cells; pre-treated 0.5 μg/ml 3 days, then 3 μg/ml, 7-day treatment
Experimental: FIG. 5.—Telomerase activity of the 293T cell lines: pLNCX and 24.2 following treatment with cisplatin. The cells were seeded in 60-mm plates, pre-treated with 0.5 μg/ml of cisplatin for 3 days and subsequently treated with cisplatin at a dose of 3 μg/ml […]. The telomerase activity was measured by means of the Intergen TRAPeze assay. The experiment was performed 3 times, with similar results.
To this end, an assay of telomerase activity was performed using the TRAP method with the pLNCX and pLNCX 24.2 cell lines (FIG. 5), pre-treating them for 3 days with 0.5 μg/ml of cisplatin; subsequently, they were treated with 3 μg/ml of cisplatin for 3 and 7 days. […]
Telomerase activity assay based on the TRAP method Wright et al., 1995). The telomerase activity was measured using the TRAPeze telomerase detection kit (Intergen) in accordance with the instruction manual. The protein concentration of each extract was quantified by means of the Bradford method using the BIORAD reagent and after performing a PCR in accordance with the manual instructions; polyacrylamide gel electrophoresis was performed with the reaction products under non-denaturing conditions and, subsequently, it was stained with Ethidium bromide for 30 minutes.

hTERT = experiment: RT-PCR expression of hTERT in 293T cell lines after cisplatin; assay type: cell-based, human; details: pLNCX cells; 3 μg/ml, 3 days of treatment
Experimental: as §1, §2, §3

T1 sequence (O14746 whole entry): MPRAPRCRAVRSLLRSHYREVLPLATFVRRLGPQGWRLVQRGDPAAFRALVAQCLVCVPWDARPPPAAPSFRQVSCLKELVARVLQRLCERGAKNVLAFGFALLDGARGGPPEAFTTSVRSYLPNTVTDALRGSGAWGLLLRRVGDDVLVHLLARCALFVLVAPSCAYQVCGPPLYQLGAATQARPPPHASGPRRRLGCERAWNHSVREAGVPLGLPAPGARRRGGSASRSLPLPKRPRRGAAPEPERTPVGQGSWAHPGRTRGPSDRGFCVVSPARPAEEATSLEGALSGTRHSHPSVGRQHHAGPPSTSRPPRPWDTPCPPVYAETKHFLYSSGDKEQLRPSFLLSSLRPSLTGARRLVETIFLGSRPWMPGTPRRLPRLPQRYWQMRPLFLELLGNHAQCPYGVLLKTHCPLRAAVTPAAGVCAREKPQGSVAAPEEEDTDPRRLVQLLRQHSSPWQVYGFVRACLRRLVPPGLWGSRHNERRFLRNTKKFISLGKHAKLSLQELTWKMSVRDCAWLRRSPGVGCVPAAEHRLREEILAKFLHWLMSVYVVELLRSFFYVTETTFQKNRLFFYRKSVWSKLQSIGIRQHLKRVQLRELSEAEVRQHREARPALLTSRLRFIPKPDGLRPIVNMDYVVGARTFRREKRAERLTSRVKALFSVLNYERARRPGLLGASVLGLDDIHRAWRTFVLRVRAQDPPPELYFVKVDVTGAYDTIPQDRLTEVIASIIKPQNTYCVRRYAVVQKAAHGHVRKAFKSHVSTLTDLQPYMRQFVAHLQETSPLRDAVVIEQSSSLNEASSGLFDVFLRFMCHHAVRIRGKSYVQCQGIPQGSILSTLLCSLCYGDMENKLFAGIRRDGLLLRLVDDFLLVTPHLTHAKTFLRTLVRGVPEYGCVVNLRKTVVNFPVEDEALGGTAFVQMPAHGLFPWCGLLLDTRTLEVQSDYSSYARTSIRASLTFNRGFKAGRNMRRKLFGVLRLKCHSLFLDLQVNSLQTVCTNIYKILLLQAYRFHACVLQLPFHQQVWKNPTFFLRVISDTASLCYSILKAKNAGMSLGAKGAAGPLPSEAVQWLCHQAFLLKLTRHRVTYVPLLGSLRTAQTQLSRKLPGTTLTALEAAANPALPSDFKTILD
T1 sequence (O60832 2-514 partner limits assumed): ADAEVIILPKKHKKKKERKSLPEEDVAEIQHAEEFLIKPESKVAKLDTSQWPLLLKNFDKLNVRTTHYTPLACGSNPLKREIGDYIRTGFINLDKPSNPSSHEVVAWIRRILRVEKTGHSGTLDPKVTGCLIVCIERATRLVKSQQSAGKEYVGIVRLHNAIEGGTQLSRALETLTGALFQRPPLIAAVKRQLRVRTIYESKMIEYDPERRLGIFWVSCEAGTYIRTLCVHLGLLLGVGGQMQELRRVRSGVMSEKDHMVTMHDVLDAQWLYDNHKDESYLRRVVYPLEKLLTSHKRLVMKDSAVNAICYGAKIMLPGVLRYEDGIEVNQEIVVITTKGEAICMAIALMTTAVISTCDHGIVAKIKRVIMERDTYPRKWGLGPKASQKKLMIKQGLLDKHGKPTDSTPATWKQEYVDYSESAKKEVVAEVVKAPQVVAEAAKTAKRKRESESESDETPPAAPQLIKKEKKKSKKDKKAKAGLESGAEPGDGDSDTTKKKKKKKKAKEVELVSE
T1 sequence (Q9NPE3 whole entry partner): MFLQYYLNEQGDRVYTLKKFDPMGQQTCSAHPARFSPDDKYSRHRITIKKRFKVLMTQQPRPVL
T1 sequence (Q9NX24 whole entry partner): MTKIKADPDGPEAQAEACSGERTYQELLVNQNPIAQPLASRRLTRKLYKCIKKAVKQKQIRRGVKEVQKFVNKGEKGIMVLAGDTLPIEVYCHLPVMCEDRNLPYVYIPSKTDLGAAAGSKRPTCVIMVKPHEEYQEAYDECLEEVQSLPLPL
T1 sequence (Q9NY12 whole entry partner): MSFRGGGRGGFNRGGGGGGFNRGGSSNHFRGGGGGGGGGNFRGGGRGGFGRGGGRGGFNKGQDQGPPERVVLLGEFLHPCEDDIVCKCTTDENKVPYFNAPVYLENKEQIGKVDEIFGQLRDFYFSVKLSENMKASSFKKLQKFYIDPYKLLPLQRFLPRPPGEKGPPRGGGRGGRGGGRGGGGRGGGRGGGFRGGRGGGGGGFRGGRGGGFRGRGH
T1 sequence (Q9BUR4 whole entry partner): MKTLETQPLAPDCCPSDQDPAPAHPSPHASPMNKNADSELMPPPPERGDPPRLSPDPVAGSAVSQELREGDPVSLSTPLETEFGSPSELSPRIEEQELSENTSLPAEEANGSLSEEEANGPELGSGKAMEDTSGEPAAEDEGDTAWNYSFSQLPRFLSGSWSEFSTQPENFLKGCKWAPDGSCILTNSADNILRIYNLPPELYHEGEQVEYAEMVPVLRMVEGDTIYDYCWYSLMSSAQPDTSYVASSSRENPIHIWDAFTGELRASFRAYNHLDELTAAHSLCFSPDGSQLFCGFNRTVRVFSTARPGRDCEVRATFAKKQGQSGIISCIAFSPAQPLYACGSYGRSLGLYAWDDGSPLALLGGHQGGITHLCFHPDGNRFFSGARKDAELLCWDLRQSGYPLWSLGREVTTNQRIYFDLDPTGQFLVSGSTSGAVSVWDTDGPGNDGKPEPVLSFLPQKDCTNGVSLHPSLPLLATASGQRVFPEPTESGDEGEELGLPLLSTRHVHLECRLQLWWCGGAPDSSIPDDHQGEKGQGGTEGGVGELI

In the case of `N.N.[Cl][Pt][Cl]` [cisplatin], the “inhibition of telomerase activity (literature)” value (telomerase [1]) is given as “capable of inhibiting telomerase activity”, the “effect of cisplatin on hTR expression” value (hTR) is given as “no effect” and the “effect of cisplatin on dyskerin expression” value (dyskerin) is given as “no effect”. The “effect of cisplatin on telomerase activity” value (telomerase [2]) was “caused inhibition of telomerase activity” and the “effect of cisplatin on hTERT expression” value (hTERT) was “reduction in the expression of hTERT”.
